Source: ChEMBL document CHEMBL1149013, “Antitumor agents, 82. Cytotoxic sapogenols from Aesculus hippocastanum” (1986)
Converted amounts (≈) assume the structure as drawn. The source made the active and inactive calls. The calls are words filed in the database; no cut-off is given here.

Tested on: KB
Assay: Cytotoxicity against human KB cells
Type: functional
Conditions: for EC50: read-out: ED50 (the source's name)

Row | Compound | Activity | EC50 [µg/mL]
1 | CC1(C)C[C@H]2C3=CC[C@@H]4[C@@]5(C)CC[C@H](O)C(C)(C)[C@@H]5CC[C@@]4(C)[C@]3(C)[C@@H](O)[C@@H](O)[C@@]2(CO)[C@@H](O)[C@@H]1O | inactive | –
2 | CC1(C)OC[C@@]23[C@@H]4OC(C)(C)O[C@@H]4[C@]4(C)C(=CC[C@@H]5[C@@]6(C)CC[C@H](O)C(C)(C)[C@@H]6CC[C@]54C)[C@@H]2CC(C)(C)[C@@H](O)[C@@H]3O1 | – | 4 (≈ 6.82 µM)
3 | C/C=C(/C)C(=O)O[C@H]1[C@H](O)[C@]2(CO)[C@H](O)C[C@]3(C)C(=CC[C@@H]4[C@@]5(C)CC[C@H](O)C(C)(C)[C@@H]5CC[C@]43C)[C@@H]2CC1(C)C | – | 3 (≈ 5.24 µM)
4 | C/C=C(/C)C(=O)O[C@H]1[C@H](OC(=O)/C(C)=C/C)C(C)(C)C[C@H]2C3=CC[C@@H]4[C@@]5(C)CC[C@H](O)C(C)(C)[C@@H]5CC[C@@]4(C)[C@]3(C)[C@@H](O)[C@@H](O)[C@]21CO [HIPPOCAESCULIN] | – | 3.6 (≈ 5.37 µM)
5 | CC1(C)C[C@H]2C3=CC[C@@H]4[C@@]5(C)CC[C@H](O)C(C)(C)[C@@H]5CC[C@@]4(C)[C@]3(C)C[C@@H](O)[C@@]2(CO)[C@@H](O)[C@@H]1O | inactive | –
